From PubChem BioAssay (NCI)
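Protocol summary: plate cells (96-well), add compound at 5 concentrations, incubate 48 h, interpolate endpoints linearly. TGI: concentration producing complete growth inhibition.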

How the values were obtained:
Assay in all cases: growth of human tumour cells (NCI), 48 h
[1] = tested on: NCI-H460 lung
[2] = tested on: SF-268 CNS
[3] = tested on: HOP-92 NSCLC
[4] = tested on: SR leukemia
[5] = tested on: IGROV1 ovarian
[6] = tested on: K-562 leukemia
[7] = tested on: RPMI-8226 leukemia
[8] = tested on: HOP-62 NSCLC
[9] = tested on: HCT-15 colon
[10] = tested on: NCI-H23 lung
[11] = tested on: U251 CNS
[12] = tested on: EKVX NSCLC
[13] = tested on: MDA-MB-231 breast
[14] = tested on: ACHN renal
[15] = tested on: NCI-H226 lung
[16] = tested on: MALME-3M melanoma
[17] = tested on: MDA-MB-435
[18] = tested on: MDA-N
[19] = tested on: 786-0 renal
[20] = tested on: LOX IMVI melanoma
[21] = tested on: HT29 colon
[22] = tested on: OVCAR-3 ovarian
[23] = tested on: M14 melanoma
[24] = tested on: SK-MEL-5 melanoma
[25] = tested on: HL-60(TB) leukemia
[26] = tested on: PC-3 prostate
[27] = tested on: BT-549 breast
[28] = tested on: SK-MEL-2 melanoma
[29] = tested on: RXF 393 renal
[30] = tested on: A549 NSCLC
[31] = tested on: T-47D breast
[32] = tested on: SN12C renal
[33] = tested on: UACC-257 melanoma
[34] = tested on: HCT-116 colon
[35] = tested on: SF-295 CNS
[36] = tested on: A498 renal
[37] = tested on: SNB-19 CNS
[38] = tested on: SW-620 colon
[39] = tested on: NCI/ADR-RES ovarian
[40] = tested on: UO-31 renal
[41] = tested on: OVCAR-8 ovarian
[42] = tested on: HS 578T breast
[43] = tested on: UACC-62 melanoma
[44] = tested on: KM12 colon
[45] = tested on: DU-145 prostate
[46] = tested on: CCRF-CEM leukemia
[47] = tested on: NCI-H522 lung
[48] = tested on: HCC-2998 colon
[49] = tested on: SK-MEL-28 melanoma
[50] = tested on: OVCAR-5 ovarian
[51] = tested on: MOLT-4 leukemia
[52] = tested on: TK-10 renal
[53] = tested on: CAKI-1 renal
[54] = tested on: SNB-75 CNS
[55] = tested on: SK-OV-3 ovarian
[56] = tested on: SF-539 CNS
[57] = tested on: COLO 205 colon
[58] = tested on: MCF7 breast
[59] = tested on: OVCAR-4 ovarian

Which results are given for Cc1cc(Cl)nc(NC(=O)CSc2ccc(Cl)cc2)n1?
TGI [1]: > 100 µM; TGI [2]: > 100 µM; TGI [3]: > 100 µM; TGI [4]: > 100 µM; TGI [5]: > 100 µM; TGI [6]: > 100 µM; TGI [7]: > 100 µM; TGI [8]: > 100 µM; TGI [9]: > 100 µM; TGI [10]: > 100 µM; TGI [11]: > 100 µM; TGI [12]: > 100 µM; TGI [13]: > 100 µM; TGI [14]: > 100 µM; TGI [15]: > 100 µM; TGI [16]: > 100 µM; TGI [17]: > 100 µM; TGI [18]: > 100 µM; TGI [19]: > 100 µM; TGI [20]: > 100 µM; TGI [21]: > 100 µM; TGI [22]: > 100 µM; TGI [23]: > 100 µM; TGI [24]: > 100 µM; TGI [25]: > 100 µM; TGI [26]: > 100 µM; TGI [27]: > 100 µM; TGI [28]: > 100 µM; TGI [29]: > 100 µM; TGI [30]: > 100 µM; TGI [31]: > 100 µM; TGI [32]: > 100 µM; TGI [33]: > 100 µM; TGI [34]: > 100 µM; TGI [35]: > 100 µM; TGI [36]: > 100 µM; TGI [37]: > 100 µM; TGI [38]: > 100 µM; TGI [39]: > 100 µM; TGI [40]: > 100 µM; TGI [41]: > 100 µM; TGI [42]: > 100 µM; TGI [43]: > 100 µM; TGI [44]: > 100 µM; TGI [45]: > 100 µM; TGI [46]: > 100 µM; TGI [47]: > 100 µM; TGI [48]: > 100 µM; TGI [49]: > 100 µM; TGI [50]: > 100 µM; TGI [51]: > 100 µM; TGI [52]: > 100 µM

How did the TGI [53] turn out when CC(=O)OCC1OC(n2c(C)c(N=Nc3ccc(C)cc3)c(C)c(C#N)c2=S)C(OC(C)=O)C(OC(C)=O)C1OC(C)=O (centres undefined) was run?
The TGI was greater than 100 µM.

And the TGI [1]?
The TGI was greater than 100 µM.

And the TGI [54]?
Its TGI is greater than 100 µM.

And the TGI [2]?
The TGI was greater than 100 µM.

And the TGI [3]?
Its TGI is 34.2 µM.

And the TGI [55]?
Its TGI is greater than 100 µM.

What about the TGI [4] of the same compound?
Its TGI is greater than 100 µM.

What about the TGI [5] of the same compound?
The TGI was greater than 100 µM.

What about the TGI [6] of the same compound?
The TGI was greater than 100 µM.

And the TGI [7]?
The TGI was greater than 100 µM.

And the TGI [8]?
Its TGI is greater than 100 µM.

And the TGI [10]?
The TGI was greater than 100 µM.

And the TGI [11]?
Its TGI is greater than 100 µM.

And the TGI [56]?
Its TGI is greater than 100 µM.

What about the TGI [13] of the same compound?
The TGI was greater than 100 µM.

What about the TGI [14] of the same compound?
The TGI was greater than 100 µM.

What about the TGI [16] of the same compound?
The TGI was greater than 100 µM.

And the TGI [57]?
The TGI was greater than 100 µM.

And the TGI [17]?
Its TGI is greater than 100 µM.

What about the TGI [58] of the same compound?
The TGI was greater than 100 µM.

And the TGI [18]?
The TGI was greater than 100 µM.

What about the TGI [19] of the same compound?
Its TGI is 72.4 µM.

And the TGI [20]?
The TGI was greater than 100 µM.

And the TGI [21]?
The TGI was greater than 100 µM.

What about the TGI [22] of the same compound?
The TGI was greater than 100 µM.

And the TGI [23]?
The TGI was greater than 100 µM.

What about the TGI [24] of the same compound?
The TGI was greater than 100 µM.

What about the TGI [25] of the same compound?
Its TGI is greater than 100 µM.

What about the TGI [26] of the same compound?
Its TGI is greater than 100 µM.

And the TGI [27]?
Its TGI is greater than 100 µM.

What about the TGI [29] of the same compound?
The TGI was greater than 100 µM.

What about the TGI [30] of the same compound?
The TGI was greater than 100 µM.

What about the TGI [31] of the same compound?
The TGI was greater than 100 µM.

And the TGI [32]?
The TGI was greater than 100 µM.

And the TGI [33]?
The TGI was greater than 100 µM.

And the TGI [34]?
The TGI was greater than 100 µM.

And the TGI [35]?
The TGI was greater than 100 µM.

And the TGI [59]?
The TGI was greater than 100 µM.

What about the TGI [37] of the same compound?
The TGI was greater than 100 µM.

What about the TGI [38] of the same compound?
Its TGI is greater than 100 µM.

What about the TGI [39] of the same compound?
Its TGI is greater than 100 µM.

And the TGI [40]?
The TGI was greater than 100 µM.

And the TGI [42]?
The TGI was 74.7 µM.

What about the TGI [43] of the same compound?
The TGI was greater than 100 µM.

And the TGI [44]?
The TGI was greater than 100 µM.

And the TGI [45]?
Its TGI is greater than 100 µM.

And the TGI [46]?
Its TGI is greater than 100 µM.

What about the TGI [48] of the same compound?
The TGI was greater than 100 µM.

And the TGI [49]?
The TGI was greater than 100 µM.

What about the TGI [50] of the same compound?
The TGI was greater than 100 µM.

What about the TGI [51] of the same compound?
The TGI was greater than 100 µM.

What about the TGI [52] of the same compound?
The TGI was greater than 100 µM.
